The values that follow come from US10813935B2, “Methods and compositions for treating drug resistance in cancer” (UNIVERSITY OF SOUTH FLORIDA, priority 2017, dated 2020).

One test has as its system p-EGFR. In words: Western blot of whole cell lysates (cleaved EGFR, p-EGFR, CYP51A1) after drug treatment. The class given is cell-based, human. The note with it: treated 48 hours. How it is done:
Cells were treated with lapatinib or ketoconazole for 48 hours. The expression of cleaved EGFR, p-EGFR, CYP51A1 were examined using western blotting of the whole cell lysates. β-Actin was included as a loading control.
For orientation: In western blotting, separated proteins are transferred to a membrane and probed.

The next test has as its system H1650 cells. The test is described as follows: Development of lapatinib resistance in parental H1650 cells, bright field microscopy. The class given is cell-based, human. Particulars: drugs added at plating, 72 hours. How it is done: Drug-resistant cells (DR) were compared to parental cell lines. 500,000 H1650 cells were plated in 1 well of a 6-well plate and treated with the indicated drugs at the time of plating. They were allowed to grow for 72 hours.

Test [1] concerns H1975, H1650 and H1299 human lung cancer cell lines (parental and drug resistant). The test is described as follows: Drug sensitivity in parental and DR cell lines, Cell Titer Glo cell viability. Type of test: cell-based. How it is done:
To investigate drug resistance to EGFR TKIs, we developed lapatinib resistant human lung cancer cell lines as model for de novo drug resistance. To derive drug resistant (DR) cells, H1975 human lung cancer cells, that carry L858R and T790M point mutations in exons 20 and 21 of EGFR, were grown in a static concentration of lapatinib for up to 30 days. We also developed EGFR TKI resistant H1650 and H1299 human lung cancer cell lines to confirm any potential findings in cell lines with different EGFR mutations, thereby enhancing the reproducibility and relevance of the work. The drug sensitivity of the parental and DR cells on both the monolayer and the 3D scaffold were determined by testing a panel of standard-of-care chemotherapeutics along with EGFR TKIs. Drug sensitivity in parental- and DR-cell lines were determined. Cells were treated in triplicates with indicated concentrations of the identified drug for 72 hours in monolayer cultures and for 48 hours in scaffold cultures. For cells grown on the scaffold, drugs were added on day 3, as compared to 24 hours for monolayer. Cell viability was determined using Cell Titer Glo assay (Promega). Average luminescence as a percentage of control in lapatinib treated cultures on the monolayer (Blue) and the scaffold (Red) is shown. Experiments were repeated at least two times. […]
(In ATP-based viability assays light output follows the ATP content of the culture.)

As to `CC(=O)N1CCN(c2ccc(OCC3COC(Cn4ccnc4)(c4ccc(Cl)cc4Cl)O3)cc2)CC1` (centres unmarked) [ketoconazole], the “p-EGFR in the H1650-DR cells” value with p-EGFR (H1650-DR cells, western blot) is “inhibited p-EGFR”. In addition, the EGFR downstream signaling entry in the test on p-EGFR (western blot of whole cell lysates) is given as “induced lowering of EGFR downstream signaling”. Moreover, the “development of lapatinib resistance in parental H1650 cells” value with H1650 cells is given as “alleviated development of lapatinib resistant”.
With `Nc1ccn([C@@H]2O[C@H](CO)[C@@H](O)C2(F)F)c(=O)n1` [gemcitabine], the “resistance of EGFR TKI resistant cells to other anti-cancer agents” value in test [1] is given as “resistant”.
On to `CC(=O)O[C@H]1C(=O)[C@@]2(C)[C@H]([C@H](OC(=O)c3ccccc3)[C@]3(O)C[C@H](OC(=O)[C@H](O)[C@@H](NC(=O)c4ccccc4)c4ccccc4)C(C)=C1C3(C)C)[C@]1(OC(C)=O)CO[C@@H]1C[C@@H]2O` [taxol], for which the “resistance of EGFR TKI resistant cells to other anti-cancer agents” value in test [1] is given as “resistant”.
